Data from PubChem BioAssay (NCI).
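Test compounds were applied to cells in 96-well plates for 48 hours at 5 doses. Abbreviation: GI50, concentration required for 50% inhibition of growth. TGI marks complete inhibition of growth.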

Key:
Assay in all cases: DTP human tumour cell line panel, 48 h
U251 CNS = tested on: U251 CNS
MALME-3M melanoma = tested on: MALME-3M melanoma
SF-268 CNS = tested on: SF-268 CNS
HOP-62 NSCLC = tested on: HOP-62 NSCLC
M14 melanoma = tested on: M14 melanoma
DMS 273 small cell lung = tested on: DMS 273 small cell lung
OVCAR-8 ovarian = tested on: OVCAR-8 ovarian
COLO 205 colon = tested on: COLO 205 colon
HT29 colon = tested on: HT29 colon
HCC-2998 colon = tested on: HCC-2998 colon

## O=C(O)c1c[nH]cc1C(=O)O
U251 CNS
  TGI: > 100 µM
MALME-3M melanoma
  TGI: > 100 µM
SF-268 CNS
  TGI: > 100 µM
HOP-62 NSCLC
  TGI: > 100 µM
M14 melanoma
  TGI: > 100 µM
DMS 273 small cell lung
  TGI: > 100 µM
OVCAR-8 ovarian
  TGI: > 100 µM
COLO 205 colon
  TGI: > 100 µM
HT29 colon
  TGI: > 100 µM

## CC(C)[C@@H](COC(C)(C)C)N=CN1CCc2c([nH]c3ccccc23)C1
U251 CNS
  TGI: > 100 µM
SF-268 CNS
  TGI: > 100 µM
HOP-62 NSCLC
  TGI: > 100 µM
M14 melanoma
  TGI: > 100 µM
DMS 273 small cell lung
  TGI: > 100 µM
HCC-2998 colon
  TGI: > 100 µM
OVCAR-8 ovarian
  TGI: > 100 µM
COLO 205 colon
  TGI: > 100 µM
HT29 colon
  TGI: > 100 µM

## CC(CCCOC(c1ccccc1)(c1ccccc1)c1ccccc1)OC(=O)Nc1cc([N+](=O)[O-])cc([N+](=O)[O-])c1 (stereo not drawn)
U251 CNS
  TGI: 83.8 µM
MALME-3M melanoma
  TGI: 83.2 µM
SF-268 CNS
  TGI: > 100 µM
HOP-62 NSCLC
  TGI: 83.4 µM
M14 melanoma
  TGI: > 100 µM
DMS 273 small cell lung
  TGI: > 100 µM
HCC-2998 colon
  TGI: > 100 µM
OVCAR-8 ovarian
  TGI: > 100 µM
HT29 colon
  TGI: > 100 µM

## Clc1ccc(CN2COc3c(cc(Cl)c4cccnc34)C2)cc1
U251 CNS
  TGI: 6.45 µM
MALME-3M melanoma
  TGI: 5.74 µM
SF-268 CNS
  TGI: 12.7 µM
HOP-62 NSCLC
  TGI: 3.35 µM
M14 melanoma
  TGI: 3.82 µM
DMS 273 small cell lung
  TGI: 3.53 µM
HCC-2998 colon
  TGI: 12 µM
OVCAR-8 ovarian
  TGI: 5.05 µM
COLO 205 colon
  TGI: 31.7 µM
HT29 colon
  TGI: 24.7 µM

## N#Cc1ccccc1NC(=O)c1ccccc1
U251 CNS
  TGI: > 100 µM
MALME-3M melanoma
  TGI: > 100 µM
SF-268 CNS
  TGI: > 100 µM
HOP-62 NSCLC
  TGI: > 100 µM
DMS 273 small cell lung
  TGI: > 100 µM
OVCAR-8 ovarian
  TGI: > 100 µM
COLO 205 colon
  TGI: > 100 µM
HT29 colon
  TGI: > 100 µM

## CCO[C@@H]1C2C=CC(C2)[C@H]1[N+](=O)[O-] (stereo partly drawn)
U251 CNS
  TGI: > 100 µM
MALME-3M melanoma
  TGI: > 100 µM
SF-268 CNS
  TGI: > 100 µM
HOP-62 NSCLC
  TGI: > 100 µM
M14 melanoma
  TGI: > 100 µM
DMS 273 small cell lung
  TGI: > 100 µM
HCC-2998 colon
  TGI: > 100 µM
OVCAR-8 ovarian
  TGI: > 100 µM
COLO 205 colon
  TGI: > 100 µM
HT29 colon
  TGI: > 100 µM

## CC(=O)Oc1ccccc1C(=O)C1c2cccc(O)c2C(=O)c2c(O)cccc21
U251 CNS
  TGI: 1.99 µM
MALME-3M melanoma
  TGI: 4.01 µM
SF-268 CNS
  TGI: 5.54 µM
HOP-62 NSCLC
  TGI: 3.4 µM
M14 melanoma
  TGI: 5.16 µM
DMS 273 small cell lung
  TGI: 3.8 µM
HCC-2998 colon
  TGI: 6.5 µM
OVCAR-8 ovarian
  TGI: 4.34 µM
COLO 205 colon
  TGI: 1.86 µM
HT29 colon
  TGI: 6.59 µM

## COC(=O)[C@]1(C)CCC[C@@]2(C)C1CCC1=C[C@@]3(C(C)C)CC[C@]12OO3 (stereo partly drawn)
U251 CNS
  TGI: > 100 µM
MALME-3M melanoma
  TGI: > 100 µM
SF-268 CNS
  TGI: 66.6 µM
HOP-62 NSCLC
  TGI: > 100 µM
M14 melanoma
  TGI: 68.3 µM
DMS 273 small cell lung
  TGI: 87.2 µM
HCC-2998 colon
  TGI: > 100 µM
OVCAR-8 ovarian
  TGI: > 100 µM
COLO 205 colon
  TGI: 45 µM
HT29 colon
  TGI: 29.5 µM

## COc1ccc2cc3n(c2c1)CCc1cc(OC)c(OC)cc1-3
U251 CNS
  TGI: > 100 µM
SF-268 CNS
  TGI: > 100 µM
HOP-62 NSCLC
  TGI: > 100 µM
DMS 273 small cell lung
  TGI: > 100 µM
HCC-2998 colon
  TGI: > 100 µM
OVCAR-8 ovarian
  TGI: > 100 µM
COLO 205 colon
  TGI: > 100 µM
HT29 colon
  TGI: > 100 µM

## O=c1cccccc1NCCCCCCCCCNc1cccccc1=O
U251 CNS
  TGI: 30 µM
MALME-3M melanoma
  TGI: 39.9 µM
SF-268 CNS
  TGI: 45.7 µM
HOP-62 NSCLC
  TGI: 35.7 µM
M14 melanoma
  TGI: 25.7 µM
DMS 273 small cell lung
  TGI: 32.6 µM
HCC-2998 colon
  TGI: 78.7 µM
OVCAR-8 ovarian
  TGI: 34.7 µM
COLO 205 colon
  TGI: 26.2 µM
HT29 colon
  TGI: 65 µM

## FC(F)(F)c1ccc2nc(Nc3ccc(Cl)c(Cl)c3)c(-c3ccccc3)nc2c1
U251 CNS
  TGI: > 100 µM
MALME-3M melanoma
  TGI: > 100 µM
SF-268 CNS
  TGI: > 100 µM
HOP-62 NSCLC
  TGI: > 100 µM
DMS 273 small cell lung
  TGI: > 100 µM
HCC-2998 colon
  TGI: > 100 µM
OVCAR-8 ovarian
  TGI: > 100 µM
COLO 205 colon
  TGI: > 100 µM
HT29 colon
  TGI: > 100 µM

## CN(C)C(=O)C1CCC(=C2C(=O)OC(C)(C)OC2=O)N1C (stereo not drawn)
U251 CNS
  TGI: > 100 µM
MALME-3M melanoma
  TGI: > 100 µM
SF-268 CNS
  TGI: > 100 µM
HOP-62 NSCLC
  TGI: > 100 µM
M14 melanoma
  TGI: > 100 µM
DMS 273 small cell lung
  TGI: > 100 µM
HCC-2998 colon
  TGI: > 100 µM
OVCAR-8 ovarian
  TGI: > 100 µM
COLO 205 colon
  TGI: > 100 µM
HT29 colon
  TGI: > 100 µM

## COC(=O)C(=O)C(C(=O)C=C(C)C)C(=O)C(=O)Nc1cccc(C(C)=O)c1 (stereo not drawn)
U251 CNS
  TGI: > 100 µM
MALME-3M melanoma
  TGI: > 100 µM
SF-268 CNS
  TGI: > 100 µM
HOP-62 NSCLC
  TGI: > 100 µM
M14 melanoma
  TGI: > 100 µM
DMS 273 small cell lung
  TGI: > 100 µM
HCC-2998 colon
  TGI: > 100 µM
OVCAR-8 ovarian
  TGI: > 100 µM
COLO 205 colon
  TGI: > 100 µM
HT29 colon
  TGI: > 100 µM

## COC(=O)C(Cc1nc2ccc(Cl)cc2[nH]c1=O)C(=O)C(=O)Nc1ccccc1[N+](=O)[O-] (stereo not drawn)
U251 CNS
  TGI: > 100 µM
MALME-3M melanoma
  TGI: > 100 µM
SF-268 CNS
  TGI: > 100 µM
HOP-62 NSCLC
  TGI: > 100 µM
M14 melanoma
  TGI: > 100 µM
DMS 273 small cell lung
  TGI: > 100 µM
HCC-2998 colon
  TGI: > 100 µM
OVCAR-8 ovarian
  TGI: > 100 µM
COLO 205 colon
  TGI: > 100 µM
HT29 colon
  TGI: > 100 µM

## Cc1cccc(C)c1NC(=O)CCCC(=O)C1CCC/C1=N\NC(=O)C(=O)NN (stereo not drawn)
U251 CNS
  TGI: > 100 µM
MALME-3M melanoma
  TGI: > 100 µM
SF-268 CNS
  TGI: > 100 µM
M14 melanoma
  TGI: > 100 µM
DMS 273 small cell lung
  TGI: > 100 µM
HCC-2998 colon
  TGI: > 100 µM
OVCAR-8 ovarian
  TGI: > 100 µM
COLO 205 colon
  TGI: > 100 µM
HT29 colon
  TGI: > 100 µM

## Fc1ccc(Nc2nccc(-c3c(-c4ccc(C(F)(F)F)cc4)nn4ncccc34)n2)cc1F
U251 CNS
  GI50: > 25 µM
  TGI: > 25 µM
MALME-3M melanoma
  GI50: > 25 µM
  TGI: > 25 µM
SF-268 CNS
  GI50: > 25 µM
  TGI: > 25 µM
HOP-62 NSCLC
  GI50: > 25 µM
  TGI: > 25 µM
M14 melanoma
  GI50: > 25 µM
  TGI: > 25 µM
HCC-2998 colon
  GI50: > 25 µM
  TGI: > 25 µM
OVCAR-8 ovarian
  GI50: > 25 µM
  TGI: > 25 µM
COLO 205 colon
  GI50: > 25 µM
  TGI: > 25 µM
HT29 colon
  GI50: > 25 µM
  TGI: > 25 µM

## Fc1ccc(Nc2nc(NCCNc3ccnc4cc(Cl)ccc34)nc(N3CCOCC3)n2)cc1
U251 CNS
  GI50: 4.72 µM
  TGI: 17.5 µM
MALME-3M melanoma
  GI50: 2.76 µM
  TGI: 4.52 µM
SF-268 CNS
  GI50: 6.85 µM
  TGI: 20.5 µM
HOP-62 NSCLC
  GI50: 13.4 µM
  TGI: 26.5 µM
M14 melanoma
  GI50: 1.94 µM
  TGI: 3.66 µM
HCC-2998 colon
  GI50: 2 µM
  TGI: 3.95 µM
OVCAR-8 ovarian
  GI50: 11.6 µM
  TGI: 40.6 µM
COLO 205 colon
  GI50: 1.71 µM
  TGI: 3.26 µM
HT29 colon
  GI50: 2.27 µM
  TGI: 5.77 µM

## C/C=C(/CCCCNCCCC)[Si](C)(C)C
U251 CNS
  TGI: 26.3 µM
MALME-3M melanoma
  TGI: 33.2 µM
SF-268 CNS
  TGI: 26.2 µM
M14 melanoma
  TGI: 27.7 µM
DMS 273 small cell lung
  TGI: 38.2 µM
HCC-2998 colon
  TGI: 18.2 µM
OVCAR-8 ovarian
  TGI: 31.8 µM
COLO 205 colon
  TGI: 27.9 µM
HT29 colon
  TGI: 14.7 µM

## FC(F)(F)C12C34C=CC5(CCC6(C=CC1(CC3)O6)C52C(F)(F)F)O4 (stereo not drawn)
U251 CNS
  TGI: > 100 µM
MALME-3M melanoma
  TGI: > 100 µM
SF-268 CNS
  TGI: > 100 µM
HOP-62 NSCLC
  TGI: > 100 µM
DMS 273 small cell lung
  TGI: > 100 µM
HCC-2998 colon
  TGI: > 100 µM
OVCAR-8 ovarian
  TGI: > 100 µM
COLO 205 colon
  TGI: > 100 µM
HT29 colon
  TGI: > 100 µM

## CCN1C(=O)N(CC)C2C1NN=c1s/c(=C3\C(=O)N(C)c4ccccc43)c(=O)n12 (stereo not drawn)
U251 CNS
  GI50: 1.97 µM
  TGI: > 68.9 µM
MALME-3M melanoma
  GI50: 0.993 µM
  TGI: > 100 µM
SF-268 CNS
  GI50: 10.8 µM
  TGI: > 100 µM
HOP-62 NSCLC
  GI50: 2.25 µM
  TGI: > 100 µM
M14 melanoma
  GI50: 0.803 µM
  TGI: > 58.3 µM
HCC-2998 colon
  GI50: 1.8 µM
  TGI: > 100 µM
OVCAR-8 ovarian
  GI50: 2.82 µM
  TGI: > 100 µM
COLO 205 colon
  GI50: 1.08 µM
  TGI: 55.1 µM
HT29 colon
  GI50: 0.562 µM
  TGI: > 100 µM
